According to patent US6066484A, “Purine nucleosidase” (Suntory Limited, priority 1996, dated 2000):
“Also recorded” adds a separate entry of the source.

How the values were obtained:
Format in all cases: biochemical, Ochrobactrum anthropi
purine nucleosidase [1] = assay: Effect of inhibitors on purine nucleosidase; details: 1 mM inhibitor; for Relative activity: pH 4.5, 30° C., 20 minutes, not added = 100.0
Description: (§1) The reaction solution (200 μl) contained 0.5 mM of adenosine or inosine or 0.25 mM of guanosine as the substrate, 50 mM of acetate buffer at pH 4.5 and a sufficient amount of enzyme. The reaction was initiated by addition of the enzyme, and the reaction was conducted at 50° C. for 5 minutes. The reaction was terminated by addition of 20 μl of 15% perchloric acid, and after centrifugation (35,000 rpm, 10 min) the supernatant was analyzed qualitatively by thin-layer chromatography (TLC) and quantitatively by high-performance liquid chromatography. The analysis methods were as follows.
The activity was measured after adding 1 mM of different inhibitors to the activity measurement solution. The reaction was conducted at pH 4.5, 30° C. for 20 minutes.

purine nucleosidase [2] = assay: Substrate specificity of purine nucleosidase by thin-layer chromatography; set-up: key to Relative activity: -: not reacted; +: <10%; ++: <31%; +++: <50%; ++++: >50%; details: for Relative activity: thin-layer chromatography
Description: as §1
(1) Thin-layer chromatography
Plate: Kieselgel 60F254 (Merk)
Developing solution: n-butanol/isopropanol/H2 O/NH4 OH=1:7:2:0.2 (v/v/v/v) (for adenosine and guanosine substrates), n-butanol/acetic acid/H2 O=5:1:1 (v/v/v) (for inosine substrate)
The substrate specificity of the purine nucleosidase was determined by thin-layer chromatography (TLC).
(§2) The specific activity was measured under conditions of 50° C., pH 4.5. The Km and Vmax were measured under conditions of 30° C., pH 4.5. The relative activity was expressed according to the following measurement method.

purine nucleosidase [3] = assay: Effect of metal ions on purine nucleosidase; details: for Relative activity: 1 mM metal, pH 4.5, 30° C., 40 minutes, not added = 100.0; for Inhibition or activation of purine nucleosidase by metal ions (in words): 1 mM metal ion
Description: as §1
Various metal ions were added to the activity measuring solution in an amount of 1 mM to measure the activity. The reaction was conducted at pH 4.5, 30° C. for 40 minutes.

purine nucleosidase [4] = assay: Specific activity, Km and Vmax of purine nucleosidase; details: pH 4.5
Description: as §1
(2) High-performance liquid chromatography
Eluent: 0.1 M sodium chlorate tetrahydrate, 0.1% (v/v) phosphoric acid
as §2

[5] = tested on: Active fraction 2 (purine nucleosidase activity); assay: Purine nucleosidase activity of active fraction 2 (1st DEAE-Sephacel)
[6] = tested on: Active fraction 1 (purine nucleosidase activity); assay: Purine nucleosidase activity of active fraction 1 (1st DEAE-Sephacel)
Description: After suspending 20 g of the wet cells in 40 ml of 10 mM Tris-HCl buffer solution (pH 7.4) (hereunder referred to as "buffer"), they were disrupted in a Dynamill at 4° C. for 10 minutes. After filtering the disrupted cell suspension it was centrifuged (10,000 rpm, 60 min) and the supernatant was used as a cell-free extract. The cell-free extract (250 ml) was dialyzed for 12 hours against 5 L of buffer and then applied to a DEAE-Sephacel column (3×30 cm, 200 ml) which had been equilibrized with the buffer. The adsorbed protein was eluted with an NaCl concentration gradient from 0 to 1.0 M and the active fractions were recovered.
The purine nucleosidase activity at this time was split into two peaks (FIG. 1). Fraction nos. 46 to 69 were collected as the first active fraction and fraction nos. 85 to 101 were collected as the second active fraction.
as §1

| Molecule | Relative activity (purine nucleosidase [2]) | Relative activity (purine nucleosidase [3]) [%] | further results |
| --- | --- | --- | --- |
| [N-]=[N+]=[N-] [sodium azide] |  |  | Inhibition of purine nucleosidase (in words) (purine nucleosidase [1]): Inhibition occurred; also recorded: inhibited; Relative activity (purine nucleosidase [1]): 72.9% |
| O=c1[nH]c(=O)c2ncn([C@@H]3O[C@H](COP(=O)(O)O)[C@@H](O)[C@H]3O)c2[nH]1 [5'-XMP] | + (<10%) |  |  |
| O=c1ccn([C@H]2C[C@H](O)[C@@H](CO)O2)c(=O)[nH]1 [2'-deoxyuridine] | - |  |  |
| [Cl-].[Cs+] [CsCl] |  | 106.9 |  |
| [Cl][Fe]([Cl])[Cl] [FeCl3] |  | 100.0 |  |
| [Ca+2].[Cl-].[Cl-] [CaCl2] |  | 101.7 |  |
| Nc1ccn([C@@H]2O[C@H](COP(=O)(O)O)[C@@H](O)[C@H]2O)c(=O)n1 [5'-CMP] | - |  |  |
| Nc1ccn([C@@H]2O[C@H](CO)[C@@H](O)[C@H]2O)c(=O)n1 [cytidine] | - |  |  |
| Nc1ncnc2c1ncn2[C@@H]1O[C@H](CO)C[C@H]1O [cordycepin] | ++ (<31%) |  |  |
| Nc1ccn([C@@H]2O[C@H](CO)[C@@H](O)[C@H]2OP(=O)(O)O)c(=O)n1 [2'-CMP] | + (<10%) |  |  |
| Nc1ncnc2c1ncn2[C@@H]1O[C@H](COP(=O)(O)O)[C@@H](O)[C@H]1O [5'-AMP, 5'-adenosine monophosphate] | ++ (<31%) |  |  |
| 5'-bromouridine | - |  |  |
| NNc1ccccc1 [phenylhydrazine] |  |  | Relative activity (purine nucleosidase [1]): 100.4% |
| Nc1ncnc2c1ncn2[C@H]1C[C@H](O)[C@@H](CO)O1 [2'-deoxyadenosine] | ++ (<31%) |  |  |
| O=C(O)c1cc(SSc2ccc([N+](=O)[O-])c(C(=O)O)c2)ccc1[N+](=O)[O-] [DTNB, 5,5'-dithiobis(2-nitrobenzoic acid)] |  |  | Inhibition of purine nucleosidase (in words) (purine nucleosidase [1]): Inhibition occurred; also recorded: inhibited; Relative activity (purine nucleosidase [1]): 37.4% |
| Nc1ncnc2c1ncn2[C@@H]1O[C@H](CO)[C@@H](O)[C@H]1OP(=O)(O)O [2'-AMP, 2'-adenosine monophosphate] | ++ (<31%) |  |  |
| [Cl-].[Rb+] [RbCl] |  | 106.5 |  |
| Nc1ncnc2c1ncn2[C@@H]1O[C@H](CO)[C@@H](OP(=O)(O)O)[C@H]1O [3'-AMP, 3'-adenosine monophosphate] | ++ (<31%) |  |  |
| CCN1C(=O)C=CC1=O [N-ethylmaleimide] |  |  | Relative activity (purine nucleosidase [1]): 107.9% |
| [Cl-].[Li+] [LiCl] |  | 103.0 |  |
| O=C1CCC(=O)N1Br [N-bromosuccimide] |  |  | Relative activity (purine nucleosidase [1]): 113.7% |

| Molecule | Relative activity (purine nucleosidase [2]) | Relative activity (purine nucleosidase [3]) [%] | further results |
| --- | --- | --- | --- |
| [Ba+2].[Cl-].[Cl-] [BaCl2] |  | 86.1 |  |
| O=[As]([O-])([O-])O.[Na+].[Na+] [sodium arsenate] |  |  | Relative activity (purine nucleosidase [1]): 69.4% |
| [Cl][Pb][Cl] [PbCl2] |  | 111.0 |  |
| NC(=O)c1ccc[n+]([C@@H]2O[C@H](COP(=O)([O-])O)[C@@H](O)[C@H]2O)c1 [β-NMN] | - |  |  |
| 2'-chloroadenosine | ++++ (>50%) |  |  |
| O=S(=O)([O-])[O-].[Zn+2] [ZnSO4] |  | 74.9 | Inhibition or activation of purine nucleosidase by metal ions (in words) (purine nucleosidase [3]; listed as Zn^2+): Inhibition occurred; also recorded: Inhibited |
| O=c1[nH]cnc2c1ncn2[C@@H]1O[C@H](CO)[C@@H](O)[C@H]1OP(=O)(O)O [2'-IMP] | - |  |  |
| [Cl][Mn][Cl] [MnCl2] |  | 65.5 | Inhibition or activation of purine nucleosidase by metal ions (in words) (purine nucleosidase [3]; listed as Mn^2+): Inhibition occurred; also recorded: Inhibited |
| [Cl-].[K+] [KCl] |  | 100.9 |  |
| Nc1nc2c(ncn2[C@@H]2O[C@H](COP(=O)(O)O)[C@@H](O)[C@H]2O)c(=O)[nH]1 [5'-GMP, 5'-guanosine monophosphate] | + (<10%) |  |  |
| O=C(O)c1cc[c]([Hg][Cl])cc1 [p-CMB] |  |  | Relative activity (purine nucleosidase [1]): 80.2% |
| O=C(O)CN(CCN(CC(=O)O)CC(=O)O)CC(=O)O [EDTA-Na2] |  |  | Relative activity (purine nucleosidase [1]): 54.4% |
| [F-].[Na+] [sodium fluoride] |  |  | Inhibition of purine nucleosidase (in words) (purine nucleosidase [1]): Inhibition occurred; also recorded: inhibited; Relative activity (purine nucleosidase [1]): 62.2% |
| [Cl-].[Na+] [NaCl] |  | 93.3 |  |
| O=c1ccn([C@@H]2O[C@H](CO)[C@@H](O)[C@H]2O)c(=O)[nH]1 [uridine] | - |  |  |
| O=c1ccn([C@@H]2O[C@H](COP(=O)(O)O)[C@@H](O)[C@H]2O)c(=O)[nH]1 [5'-UMP] | - |  |  |
| O=S(=O)([O-])[O-].[Cu+2] [CuSO4] |  | 42.7 | Inhibition or activation of purine nucleosidase by metal ions (in words) (purine nucleosidase [3]; listed as Cu^2+): Inhibition occurred; also recorded: Inhibited |
| Nc1ncnc2c1ncn2[C@@H]1O[C@H](CO)[C@@H](O)[C@H]1O [adenosine] | ++++ (>50%) |  | Km (purine nucleosidase [4]; 30° C.): 17.1 µM; Vmax (purine nucleosidase [4]; 30° C.): 28.5 µmol/min/mg; Specific activity (purine nucleosidase [4]; 50° C.): 292 µmol/min/mg; decomposition of purine nucleosides (in words) (purine nucleosidase [2]; pH 5.5 and 60° C.): capable of decomposing; Specific activity, Active fraction 2 ([5]; 30° C.): 0.59 µmol/min/mg; Specific activity, Active fraction 2 ([5]; 50° C.): 0.45 µmol/min/mg; Specific activity, Active fraction 1 ([6]; 30° C.): 0.70 µmol/min/mg; Specific activity, Active fraction 1 ([6]; 50° C.): 3.6 µmol/min/mg |
| O=C(O)CI [iodoacetic acid] |  |  | Relative activity (purine nucleosidase [1]): 99.4% |
| Oc1cccc2cccnc12 [8-hydroxyquinoline] |  |  | Relative activity (purine nucleosidase [1]): 8.5% |
| O=c1[nH]cc([C@@H]2O[C@H](CO)[C@@H](O)[C@H]2O)c(=O)[nH]1 [pseudouridine] | - |  |  |

| Molecule | Relative activity (purine nucleosidase [2]) | Relative activity (purine nucleosidase [3]) [%] | further results |
| --- | --- | --- | --- |
| [Cl][Al]([Cl])[Cl] [AlCl3] |  | 73.6 |  |
| Cc1cn([C@H]2C[C@H](O)[C@@H](CO)O2)c(=O)[nH]c1=O [thymidine] | - |  |  |
| [Cl][Cd][Cl] [CdCl2] |  | 124.9 |  |
| O=c1[nH]cnc2c1ncn2[C@@H]1O[C@H](COP(=O)(O)OP(=O)(O)O)[C@@H](O)[C@H]1O [5'-IDP] | - |  |  |
| c1cnc2c(c1)ccc1cccnc12 [o-phenanthroline] |  |  | Relative activity (purine nucleosidase [1]): 78.3% |
| [Cl][Sn][Cl] [SnCl2] |  | 113.2 |  |
| Cl.NO [NH2 OH·HCl] |  |  | Relative activity (purine nucleosidase [1]): 106.6% |
| [Cl][Ni][Cl] [NiCl2] |  | 91.3 |  |
| [Cl-].[Cl-].[Co+2] [CoCl2] |  | 82.9 |  |
| O=S(=O)([O-])[O-].[Be+2] [BeSO4] |  | 88.9 |  |
| NC(=O)c1ccc[n+]([C@@H]2O[C@H](COP(=O)([O-])OP(=O)(O)OC[C@H]3O[C@@H](n4cnc5c(=O)[nH]cnc54)[C@H](O)[C@@H]3O)[C@@H](O)[C@H]2O)c1 [deamino NAD] | - |  |  |
| NC(=O)c1ccc[n+]([C@@H]2O[C@H](COP(=O)([O-])OP(=O)(O)OC[C@H]3O[C@@H](n4cnc5c(N)ncnc54)[C@H](O)[C@@H]3O)[C@@H](O)[C@H]2O)c1 [β-NAD, β-nicotinamide adenine dinucleotide] | + (<10%) |  |  |
| NNC(N)=O [semicarbazide] |  |  | Relative activity (purine nucleosidase [1]): 103.4% |
| [Cl-].[Cl-].[Mg+2] [MgCl2] |  | 91.6 |  |
| O=[Se](O)O [sodium selenite] |  |  | Inhibition of purine nucleosidase (in words) (purine nucleosidase [1]): Inhibition occurred; also recorded: inhibited |
| NC(=O)c1ccc[n+]([C@@H]2O[C@H](COP(=O)([O-])OP(=O)(O)OC[C@H]3O[C@@H](n4cnc5c(N)ncnc54)[C@H](OP(=O)(O)O)[C@@H]3O)[C@@H](O)[C@H]2O)c1 [β-NADP] | - |  |  |
| O=S(=O)([O-])[O-].[Ag+].[Ag+] [Ag2 SO4] |  | 31.6 | Inhibition or activation of purine nucleosidase by metal ions (in words) (purine nucleosidase [3]; listed as Ag^+): Inhibition occurred; also recorded: Inhibited |
| O=S(=O)([O-])[O-].[Fe+2] [FeSO4] |  | 92.6 |  |
| [Cl][Hg][Cl] [HgCl2] |  | 39.4 | Inhibition or activation of purine nucleosidase by metal ions (in words) (purine nucleosidase [3]; listed as Hg^2+): Inhibition occurred; also recorded: Inhibited |
